Values of other authors as cited in patent US20210330614A1, “PROCESS FOR MANUFACTURING PHENYLEPHRINE RESINATE PARTICLES; PHENYLEPHRINE RESINATE PARTICLES; AND USE OF PHENYLEPHRINE RESINATE PARTICLES IN PHARMACEUTICAL FORMULATIONS” (Johnson & Johnson Consumer Inc., priority 2014, published 2021).

Assays:
[1] = therapeutic dose
[2] = 30 mg dose administered orally over eight hours

Compound: CC(=O)Nc1ccc(O)cc1 [acetaminophen, Acetaminophen]
- excreted unchanged in the urine, % of dose [1]: Less than 9%

Compound: CNC[C@H](O)c1cccc(O)c1.Cl [phenylephrine, (R)-1-(3-hydroxyphenyl)-2-methylaminoethanol]
- metabolized to m-hydroxy-phenylglycol-sulfate, % of the dose [2]: 6%
- metabolized to m-hydroxymandelic acid, % of the dose [2]: 30%
- metabolized to phenylephrine-glucuronide, % of the dose [2]: 12%
- metabolized to phenylephrine-sulfate, % of the dose [2]: 47%
